For four compounds, Ke, Ki and IC50 results are on record in ChEMBL document CHEMBL1137840, “A novel cyclic enkephalin analogue with potent opioid antagonist activity” (Bioorg Med Chem Lett, 2004).

Assay [1] addresses Delta-type opioid receptor (Mus musculus) (UniProt P32300). In words: Binding potency towards Delta opioid receptor of mouse vas deferens. It counts as tissue-based.
The nature of assay [2]: Binding affinity towards Opioid receptor mu 1.
Assay [3] addresses Kappa-type opioid receptor (Cavia porcellus) (UniProt P41144). In words: Binding potency towards Kappa opioid receptor of guinea pig ileum. It is filed as tissue-based.
Assay [4] addresses Mu-type opioid receptor (Cavia porcellus) (UniProt P97266). The assay is described as follows: Binding potency towards Mu opioid receptor of guinea pig ileum. It counts as tissue-based.
The nature of assay [5]: Binding affinity towards Kappa opioid receptor.
A short description of assay [6]: Binding affinity towards Mu opioid receptor.
For assay [7], the target named is Kappa-type opioid receptor (Cavia porcellus, UniProt P41144). In words: Inhibitory concentration against Kappa opioid receptor of guinea pig ileum. It counts as tissue-based.
Kappa-type opioid receptor, sequence (P41144 whole entry): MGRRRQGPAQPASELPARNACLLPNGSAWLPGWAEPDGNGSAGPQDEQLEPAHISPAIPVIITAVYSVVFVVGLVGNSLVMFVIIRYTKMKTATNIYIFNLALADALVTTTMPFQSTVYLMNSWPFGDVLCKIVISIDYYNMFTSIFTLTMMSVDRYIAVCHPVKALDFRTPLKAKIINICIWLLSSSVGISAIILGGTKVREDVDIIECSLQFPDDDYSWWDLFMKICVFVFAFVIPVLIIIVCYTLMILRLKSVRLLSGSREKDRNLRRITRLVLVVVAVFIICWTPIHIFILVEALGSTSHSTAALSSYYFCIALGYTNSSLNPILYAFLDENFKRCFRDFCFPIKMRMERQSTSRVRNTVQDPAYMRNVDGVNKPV

Delta-type opioid receptor (Mus musculus), sequence (P32300 whole entry): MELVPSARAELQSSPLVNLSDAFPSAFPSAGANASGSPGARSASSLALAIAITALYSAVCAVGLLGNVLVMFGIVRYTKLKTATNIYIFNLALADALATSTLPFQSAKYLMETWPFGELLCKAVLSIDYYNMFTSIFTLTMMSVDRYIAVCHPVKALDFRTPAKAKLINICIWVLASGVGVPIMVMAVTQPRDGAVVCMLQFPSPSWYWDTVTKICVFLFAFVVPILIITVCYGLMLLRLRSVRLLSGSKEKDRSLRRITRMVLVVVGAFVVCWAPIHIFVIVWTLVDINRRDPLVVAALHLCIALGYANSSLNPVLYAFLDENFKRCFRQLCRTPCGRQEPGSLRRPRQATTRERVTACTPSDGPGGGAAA
Kappa-type opioid receptor (Cavia porcellus), sequence (P41144 whole entry): as the sequence (P41144 whole entry) above
Mu-type opioid receptor (Cavia porcellus), sequence (P97266 whole entry): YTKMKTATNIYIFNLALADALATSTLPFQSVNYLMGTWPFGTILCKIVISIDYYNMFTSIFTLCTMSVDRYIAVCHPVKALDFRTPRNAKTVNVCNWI

As for `Cc1cc(O)cc(C)c1[C@@H](C)CC(=O)N[C@H]1CSSC[C@H](C(N)=O)NC(=O)[C@H](Cc2ccc([N+](=O)[O-])cc2)NC(=O)CNC1=O`, the Ke is 55 nM in assay [1], 5.81 nM in assay [3] and 1.4 nM in assay [4]. Further, the Ki in assay [2] is 2.1 nM; in assay [5], 49.5 nM.

Turning to `Cc1cc(O)cc(C)c1[C@H](C)CC(=O)N[C@H]1CSSC[C@H](C(N)=O)NC(=O)[C@H](Cc2ccc([N+](=O)[O-])cc2)NC(=O)CNC1=O`, the Ke came out at 3280 nM in assay [1], 1630 nM in assay [3] and 845 nM in assay [4]. Also, the Ki was found to be 94.4 nM in assay [6] and 6970 nM in assay [5].

Turning to `Cc1cc(O)cc(C)c1C[C@H](N)C(=O)N[C@@H]1CSSC[C@H](C(N)=O)NC(=O)[C@H](Cc2ccc([N+](=O)[O-])cc2)NC(=O)CNC1=O`, half-maximal inhibition in assay [7] (IC50) was put at 0.54 nM. In addition, the Ki in assay [6] was determined as 0.24 nM; in assay [5], 3.77 nM.

Take `Cc1cc(O)cc(C)c1CCC(=O)N[C@H]1CSSC[C@H](C(N)=O)NC(=O)[C@H](Cc2ccc([N+](=O)[O-])cc2)NC(=O)CNC1=O`: the Ke in assay [1] was 63.3 nM; in assay [3], 22.6 nM; in assay [4], 3.68 nM. Further, the results for the Ki in assay [6] and in assay [5] were 4.79 nM and 299 nM, respectively.
